Values of other authors as cited in US20180042922A1 (priority 2016, published 2018).

System: patients with PTSD
Conditions: RCTs

COc1cc2nc(N3CCN(C(=O)c4ccco4)CC3)nc(N)c2cc1OC [prazosin]
nightmares in patients with PTSD: decrease nightmares
